Experiment: cn = amount concentration of the nth substance listed, in mol/dm3
Conditions: 310.15 K, 101 kPa, Liquid, Taylor dispersion method

Question: What does the source list for `[Cl][Cd][Cl]` [cadmium chloride] + O?
Answer: binary diffusion coefficient (c1 = 0): 1.39e-09 m2/s; binary diffusion coefficient (c1 = 0.001): 1.34e-09 m2/s; binary diffusion coefficient (c1 = 0.003): 1.32e-09 m2/s; binary diffusion coefficient (c1 = 0.005): 1.28e-09 m2/s; binary diffusion coefficient (c1 = 0.008): 1.28e-09 m2/s; binary diffusion coefficient (c1 = 0.01): 1.28e-09 m2/s; binary diffusion coefficient (c1 = 0.05): 1.2e-09 m2/s; binary diffusion coefficient (c1 = 0.1): 1.2e-09 m2/s; binary diffusion coefficient (c1 = 0.4): 1.26e-09 m2/s

From the NIST ThermoML archive (doi:10.1016/j.jct.2012.09.011)
